{
  "source": "patent EP0852148B1",
  "about": "“Products having anti-microbial activity” (SION MICROTEC LTD., priority 1997, dated 1998)",
  "key": {"[1]": {"test_system": "Staphylococcus aureus (SA)", "assay": "Inhibition zone on bacterial lawn on agar plate, daily sequential transfer of sample", "type": "cell-based"}, "[2]": {"test_system": "S. epidermidis (SE)", "assay": "Inhibition zone on bacterial lawn on agar plate, daily sequential transfer of sample", "type": "cell-based", "experimental": "(§1) The antimicrobial activity of the product was tested on lawns of several bacteria: Staphylococcus aureus (SA), S. epidermidis (SE), Escherichia coli (EC) and Pseudonomas aeruginosa (PA), inoculated on agar plates, by placing a sample of about 2 cm^2 on the surface of the plate, and measurement of the inhibition zone after growth of the bacteria for 18 hours at 37°C. After 24 hours, the sample was passed sequentially to another inoculated agar plate and the inhibition zone measured. This daily transfer procedure continued up to the loss of growth-inhibiting activity.\n(§2) The data set forth in the Tables herein is presented as follows: a = no inhibition b = partial growth inhibition under matrix c = total growth inhibition under matrix d = growth inhibition beyond the matrix, but at less than 1 mm E x-y = growth inhibition in mm; x = minimum distance; y = maximum distance."}, "[3]": {"test_system": "Escherichia coli (EC)", "assay": "Inhibition zone on bacterial lawn on agar plate, daily sequential transfer of sample", "type": "cell-based", "experimental": "as §1, §2"}, "[4]": {"test_system": "Pseudonomas aeruginosa (PA)", "assay": "Inhibition zone on bacterial lawn on agar plate, daily sequential transfer of sample", "type": "cell-based", "experimental": "as §1, with “A matrix made of cotton gauze 75 mm wide, in accordance with the British Pharmacopoeia, was soaked in 0.5% chlorohexidine gluconate (CHXG) aqueous solution at 25°C and dried by forced hot air at 60°C in a continuous process. The” for “The”\nas §2"}, "[5]": {"test_system": "Staphylococcus aureus (SA)", "assay": "Inhibition zone on bacterial lawn on agar plate, daily sequential transfer of sample", "type": "cell-based", "settings": "for Growth Inhibition SA: procedure of Example 1 (cotton gauze)", "experimental": "as §1, with “A matrix made of cotton gauze 75 mm wide, in accordance with the British Pharmacopoeia, was soaked in 0.5% chlorohexidine gluconate (CHXG) aqueous solution at 25°C and dried by forced hot air at 60°C in a continuous process. The” for “The”\nas §2"}, "[6]": {"test_system": "human immunodeficiency virus type I", "settings": "aqueous solution, in 15 seconds; cited from earlier work"}, "[7]": {"settings": "in vivo; cited from earlier work"}, "[8]": {"test_system": "Staphylococcus aureus (SA)", "assay": "Inhibition zone on bacterial lawn on agar plate, daily sequential transfer of sample", "type": "cell-based", "settings": "procedure of Example 1 (cotton gauze)", "experimental": "A matrix made of cotton gauze 75 mm wide, in accordance with the British Pharmacopoeia, was soaked in 0.5% chlorohexidine gluconate (CHXG) aqueous solution at 25°C and dried by forced hot air at 60°C in a continuous process. The antimicrobial activity of the product was tested on lawns of several bacteria: Staphylococcus aureus (SA), S. epidermidis (SE), Escherichia coli (EC) and Pseudonomas aeruginosa (PA), inoculated on agar plates, by placing a sample of about 2 cm^2 on the surface of the plate, and measurement of the inhibition zone after growth of the bacteria for 18 hours at 37°C. After 24 hours, the sample was passed sequentially to another inoculated agar plate and the inhibition zone measured. This daily transfer procedure continued up to the loss of growth-inhibiting activity. The data set forth in the Tables herein is presented as follows: a = no inhibition b = partial growth inhibition under matrix c = total growth inhibition under matrix d = growth inhibition beyond the matrix, but at less than 1 mm E x-y = growth inhibition in mm; x = minimum distance; y = maximum distance."}, "[9]": {"settings": "Matrix Cellular triacetate, CHXH 0.1% or CHXG 1.0%"}, "[10]": {"settings": "Matrix Nylon, CHXH 0.1% or CHXG 1.0%"}, "[11]": {"settings": "Matrix Polyethylene, CHXH 0.1% or CHXG 1.0%"}, "[12]": {"settings": "Matrix Polypropylene, CHXH 0.1% or CHXG 1.0%"}, "[13]": {"settings": "non-woven matrix (polyethylene, viscose and cotton), CHXG Concentration 2 %"}, "[14]": {"settings": "non-woven matrix (polyethylene, viscose and cotton), CHXG Concentration 5 %"}, "[15]": {"settings": "Matrix Nylon, CHXH 0.1% or CHXG 1.0%, hydrochloride"}, "[16]": {"settings": "Matrix Polyethylene, CHXH 0.1% or CHXG 1.0%, hydrochloride"}, "[17]": {"settings": "Matrix Polypropylene, CHXH 0.1% or CHXG 1.0%, hydrochloride"}},
  "note": "Structures can show the parent of a compound that is named as a salt. Where two headings read alike, the source gives them in different places.",
  "data": [
    {"compound": "N=C(NCCCCCCNC(=N)NC(=N)Nc1ccc(Cl)cc1)NC(=N)Nc1ccc(Cl)cc1", "note": "[CHXG, chlorohexidine gluconate]", "values": [
      {"measurement": "Microorganism Growth Inhibition SA", "setting": "[1]; [9]", "result": "E 4-5 mm"},
      {"measurement": "Microorganism Growth Inhibition SA", "setting": "[1]; [10]", "result": "E 3-5 mm"},
      {"measurement": "Microorganism Growth Inhibition SA", "setting": "[1]; [11]", "result": "E 3-5 mm"},
      {"measurement": "Microorganism Growth Inhibition SA", "setting": "[1]; [12]", "result": "E 2-5 mm"},
      {"measurement": "Microorganism Growth Inhibition SA", "setting": "[1]; [13]", "result": "E 5-7 mm"},
      {"measurement": "Microorganism Growth Inhibition SA", "setting": "[1]; [14]", "result": "E 4-5 mm"},
      {"measurement": "Microorganism Growth Inhibition SE", "setting": "[2]; [9]", "result": "E 4 mm"},
      {"measurement": "Microorganism Growth Inhibition SE", "setting": "[2]; [11]", "result": "E 3 mm"},
      {"measurement": "Microorganism Growth Inhibition SE", "setting": "[2]; [12]", "result": "E 2-3 mm"},
      {"measurement": "Microorganism Growth Inhibition SE", "setting": "[2]; [13]", "result": "E 3-5 mm"},
      {"measurement": "Microorganism Growth Inhibition SE", "setting": "[2]; [14]", "result": "E 4-5 mm"},
      {"measurement": "Microorganism Growth Inhibition EC", "setting": "[3]; [9]", "result": "E 3-4 mm"},
      {"measurement": "Microorganism Growth Inhibition EC", "setting": "[3]; [10]", "result": "E 2-4 mm"},
      {"measurement": "Microorganism Growth Inhibition EC", "setting": "[3]; [11]", "result": "E 2-3 mm"},
      {"measurement": "Microorganism Growth Inhibition EC", "setting": "[3]; [12]", "result": "E 2-4 mm"},
      {"measurement": "Microorganism Growth Inhibition EC", "setting": "[3]; [13]", "result": "E 2-3 mm"},
      {"measurement": "Microorganism Growth Inhibition EC", "setting": "[3]; [14]", "result": "E 3-4 mm"},
      {"measurement": "Microorganism Growth Inhibition PA", "setting": "[4]; [9]", "result": "E 1 mm"},
      {"measurement": "Microorganism Growth Inhibition PA", "setting": "[4]; [10]", "result": "d (growth inhibition beyond the matrix, but at less than 1 mm)"},
      {"measurement": "Microorganism Growth Inhibition PA", "setting": "[4]; [11]", "result": "E 1 mm"},
      {"measurement": "Microorganism Growth Inhibition PA", "setting": "[4]; [13]", "result": "d (growth inhibition beyond the matrix, but at less than 1 mm)"},
      {"measurement": "Microorganism Growth Inhibition PA", "setting": "[4]; [14]", "result": "E 1-2 mm"},
      {"measurement": "Growth Inhibition SA", "setting": "[5]; Day 1", "result": "E 4-5 mm"},
      {"measurement": "Growth Inhibition SA", "setting": "[5]; Day 2", "result": "E 3-4 mm"},
      {"measurement": "Growth Inhibition SA", "setting": "[5]; Day 3", "result": "E 2-3 mm"},
      {"measurement": "Growth Inhibition SA", "setting": "[5]; Day 4", "result": "E 2-3 mm"}
    ]},
    {"compound": "N=C(NCCCCCCNC(=N)NC(=N)Nc1ccc(Cl)cc1)NC(=N)Nc1ccc(Cl)cc1", "note": "[CHXH, chlorohexidine hydrochloride]", "values": [
      {"measurement": "Microorganism Growth Inhibition SA", "setting": "[1]; [15]", "result": "E 3-4 mm"},
      {"measurement": "Microorganism Growth Inhibition SA", "setting": "[1]; [16]", "result": "E 3-4 mm"},
      {"measurement": "Microorganism Growth Inhibition SA", "setting": "[1]; [17]", "result": "E 2-4 mm"},
      {"measurement": "Microorganism Growth Inhibition SE", "setting": "[2]", "result": "E 3-4 mm"},
      {"measurement": "Microorganism Growth Inhibition SE", "setting": "[2]; [10]", "result": "E 2-3 mm"},
      {"measurement": "Microorganism Growth Inhibition SE", "setting": "[2]; [16]", "result": "E 2 mm"},
      {"measurement": "Microorganism Growth Inhibition SE", "setting": "[2]; [17]", "result": "E 1-2 mm"},
      {"measurement": "Microorganism Growth Inhibition EC", "setting": "[3]", "result": "E 2-4 mm"},
      {"measurement": "Microorganism Growth Inhibition EC", "setting": "[3]; [15]", "result": "E 2-3 mm"},
      {"measurement": "Microorganism Growth Inhibition EC", "setting": "[3]; [16]", "result": "E 1-3 mm"},
      {"measurement": "Microorganism Growth Inhibition EC", "setting": "[3]; [17]", "result": "E 1-3 mm"},
      {"measurement": "Microorganism Growth Inhibition PA", "setting": "[4]", "result": "E 1-2 mm"},
      {"measurement": "Microorganism Growth Inhibition SA", "setting": "[5]", "result": "E 5-6 mm"}
    ]},
    {"compound": "CCCCCCCCCCCCCCCC[n+]1ccccc1.[Cl-]", "note": "[Example 844, Cetyl piridinium chloride]", "values": [
      {"measurement": "Growth Inhibition SA", "setting": "[5]; Day 1", "result": "E 3-4 mm"},
      {"measurement": "Growth Inhibition SA", "setting": "[5]; Day 2", "result": "E 5-6 mm"},
      {"measurement": "Growth Inhibition SA", "setting": "[5]; Day 3", "result": "E 3-4 mm"},
      {"measurement": "Growth Inhibition SA", "setting": "[5]; Day 4", "result": "E 2-4 mm"}
    ]},
    {"compound": "CCCCCCCCCCCCCCCC[N+](C)(C)Cc1ccccc1.[Cl-]", "note": "[Example 861, Benzyl dimethyl hexocylammonium chloride]", "values": [
      {"measurement": "Growth Inhibition SA", "setting": "[5]; Day 1", "result": "E 3-5 mm"},
      {"measurement": "Growth Inhibition SA", "setting": "[5]; Day 2", "result": "E 3-4 mm"},
      {"measurement": "Growth Inhibition SA", "setting": "[5]; Day 3", "result": "E 3-4 mm"},
      {"measurement": "Growth Inhibition SA", "setting": "[5]; Day 4", "result": "E 2-3 mm"}
    ]},
    {"compound": "[H]/N=C(\\N/C(=N/[H])NCCCCCCNC(=N)NC(=N)Nc1ccc(Cl)cc1)Nc1ccc(Cl)cc1", "note": "[chlorhexidine]", "values": [
      {"measurement": "inactivation of human immunodeficiency virus type I", "setting": "[6]", "result": 100, "unit": "%"}
    ]},
    {"compound": "Clc1nc(Cl)nc(Cl)n1", "note": "[cyanuric chloric linking group, cyanuric chloride]", "values": [
      {"measurement": "LD50", "setting": "[7]", "result": 18, "unit": "mg/kg"}
    ]},
    {"compound": "Bacitracin [Example 846]", "values": [
      {"measurement": "Growth Inhibition SA", "setting": "[8]; Day 1", "result": "E 4-6 mm"},
      {"measurement": "Growth Inhibition SA", "setting": "[8]; Day 2", "result": "E 1-3 mm"}
    ]},
    {"compound": "Septabicdidecyl dimethyl ammonium bromide [Example 868]", "values": [
      {"measurement": "Growth Inhibition SA", "setting": "[5]; Day 1", "result": "E 5-6 mm"},
      {"measurement": "Growth Inhibition SA", "setting": "[5]; Day 2", "result": "E 5-6 mm"},
      {"measurement": "Growth Inhibition SA", "setting": "[5]; Day 3", "result": "E 4-5 mm"},
      {"measurement": "Growth Inhibition SA", "setting": "[5]; Day 4", "result": "E 3-4 mm"}
    ]}
  ]
}
